Measured values from publication PMC13006724 (Clinical Pharmacology in Drug Development, 2026).

Details: human, in vivo, 400 mg
Procedure: Urine PK parameters included cumulative urinary excretion from time zero to time t (Ae0‐t), maximum rate of urinary excretion (Rmax), time of maximum rate of urinary excretion (TRmax), and renal clearance (Clr). PK analyses were performed using Phoenix WinNonlin version 8.0, which was validated by Syneos Health.

- AUC0-inf: 28327.2 (4616.5) h*ng/mL
SMILES: COc1c(N2C[C@@H]3CCCN[C@@H]3C2)c(F)cc2c(=O)c(C(=O)O)cn(C3CC3)c12 [Moxifloxacin]
